Data taken from ChEMBL document CHEMBL1201862, “PubChem BioAssay data set” (2004).
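Five concentrations, 48 hours, 96-well plates. GI50 marks 50% less growth.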 Activity calls are given as the source filed them. No stated cut-off is given here; in the data, active = GI50 up to about 1.1 µM and inactive = higher.

Columns and labels:
Assay in all cases: NCI-60 cell line screen, 48 h
A498 = test system: A498
COLO 205 = test system: COLO 205
HCT-116 = test system: HCT-116
IGROV-1 = test system: IGROV-1
NCI-H226 = test system: NCI-H226
OVCAR-4 = test system: OVCAR-4
SF-295 = test system: SF-295
SF-539 = test system: SF-539
SN12C = test system: SN12C
SNB-75 = test system: SNB-75
U-251 = test system: U-251
UACC-62 = test system: UACC-62
UO-31 = test system: UO-31
OVCAR-5 = test system: OVCAR-5
SK-MEL-28 = test system: SK-MEL-28

Structure (SMILES) | GI50 (A498) | GI50 (COLO 205) | GI50 (HCT-116) | GI50 (IGROV-1) | GI50 (NCI-H226) | GI50 (OVCAR-4) | GI50 (SF-295) | GI50 (SF-539) | GI50 (SN12C) | GI50 (SNB-75) | GI50 (U-251) | GI50 (UACC-62) | GI50 (UO-31) | GI50 (OVCAR-5) | GI50 (SK-MEL-28)
O=C(Nc1ccccc1)n1cc(-c2ccccn2)c(N2CCOCC2)n1 | 4.11 µM (inactive) | 5.14 µM (inactive) | 4.29 µM (inactive) | 12 µM (inactive) | 23.8 µM (inactive) | > 100 µM (inactive) | 1.9 µM (inactive) | 6.73 µM (inactive) | 35.2 µM (inactive) | 3.78 µM (inactive) | 4.94 µM (inactive) | 5.62 µM (inactive) | 11.8 µM (inactive) |  | 
N#CC(c1ccc(Cl)cc1)c1cccc(Cl)n1 (configuration not stated) | 74.8 µM (inactive) | 67.1 µM (inactive) |  |  | 43.6 µM (inactive) | 40 µM (inactive) | 61.9 µM (inactive) |  | 54.3 µM (inactive) | 21.5 µM (inactive) | 97.9 µM (inactive) | 42.6 µM (inactive) | 28.1 µM (inactive) | > 100 µM (inactive) | 86.9 µM (inactive)
NC(=S)N/N=C/c1cn(CCCl)c2ccccc12 |  | 46.5 µM (inactive) | 27.4 µM (inactive) | > 100 µM (inactive) |  |  | 13.6 µM (inactive) |  | 89.7 µM (inactive) | 12.9 µM (inactive) |  | 30.2 µM (inactive) | 16.9 µM (inactive) | 3.81 µM (inactive) | 63.5 µM (inactive)
COc1ccc([C@@H]2OC(=O)C3C2C(=O)O[C@H]3c2ccc(OC)cc2)cc1 (some centres not stated) | > 100 µM (inactive) | > 100 µM (inactive) | > 100 µM (inactive) | > 100 µM (inactive) |  | > 100 µM (inactive) | > 100 µM (inactive) | > 100 µM (inactive) | > 100 µM (inactive) | > 100 µM (inactive) | > 100 µM (inactive) | > 100 µM (inactive) | > 100 µM (inactive) |  | > 100 µM (inactive)
O=C1C2=C(CCCCC2)C2CCCCC12O (configuration not stated) |  | > 100 µM (inactive) | > 100 µM (inactive) | > 100 µM (inactive) | > 100 µM (inactive) |  | > 100 µM (inactive) | > 100 µM (inactive) | > 100 µM (inactive) | > 100 µM (inactive) | > 100 µM (inactive) | > 100 µM (inactive) | > 100 µM (inactive) |  | > 100 µM (inactive)
CN1C/C(=C\c2ccccc2)C2=NN(C(N)=S)[C@H](c3ccccc3)[C@@H]2C1 | > 100 µM (inactive) | 38.5 µM (inactive) | 37.3 µM (inactive) | > 100 µM (inactive) | 75.5 µM (inactive) | 56.6 µM (inactive) | 87.9 µM (inactive) | > 100 µM (inactive) | > 100 µM (inactive) |  | > 100 µM (inactive) | 74.6 µM (inactive) | 36.9 µM (inactive) | > 100 µM (inactive) | > 100 µM (inactive)
CCOC(=O)[C-]([N+]#N)[Si](C)(C)C | > 100 µM (inactive) | > 100 µM (inactive) | 53.1 µM (inactive) | > 100 µM (inactive) |  | > 100 µM (inactive) | > 100 µM (inactive) | > 100 µM (inactive) | > 100 µM (inactive) | > 100 µM (inactive) | 24.2 µM (inactive) | 72.4 µM (inactive) |  | > 100 µM (inactive) | 18.5 µM (inactive)
O=C(O)CNc1c2ccccc2nc2ccccc12 |  | > 100 µM (inactive) | 78.3 µM (inactive) | > 100 µM (inactive) | > 100 µM (inactive) | 22.1 µM (inactive) | > 100 µM (inactive) | > 100 µM (inactive) | > 100 µM (inactive) | > 100 µM (inactive) | > 100 µM (inactive) | > 100 µM (inactive) | 50.6 µM (inactive) | > 100 µM (inactive) | > 100 µM (inactive)
c1ccc(COCC2OC3c4ccccc4COC3C2OCc2ccccc2)cc1 (configuration not stated) |  | > 100 µM (inactive) | 71.3 µM (inactive) | > 100 µM (inactive) | > 100 µM (inactive) | > 100 µM (inactive) | 77.3 µM (inactive) | > 100 µM (inactive) | > 100 µM (inactive) | 39.6 µM (inactive) | > 100 µM (inactive) | 52.7 µM (inactive) | > 100 µM (inactive) | > 100 µM (inactive) | > 100 µM (inactive)
Cc1cc(=O)n(-c2ccccc2)c(=O)o1 | > 100 µM (inactive) | > 100 µM (inactive) | > 100 µM (inactive) | > 100 µM (inactive) | > 100 µM (inactive) | > 100 µM (inactive) | 49.5 µM (inactive) | > 100 µM (inactive) | > 100 µM (inactive) | > 100 µM (inactive) | > 100 µM (inactive) | > 100 µM (inactive) | > 100 µM (inactive) | > 100 µM (inactive) | > 100 µM (inactive)
CC1OC(n2cc(C(F)(F)F)c(=O)[nH]c2=O)C=CC1=O (configuration not stated) |  | 19.3 µM (inactive) | 16.2 µM (inactive) | 20 µM (inactive) | 28.4 µM (inactive) | 13.4 µM (inactive) | 27.6 µM (inactive) | 18.9 µM (inactive) | 23.3 µM (inactive) | 16 µM (inactive) | > 10 µM (inactive) | 21 µM (inactive) | 18.2 µM (inactive) | 19.4 µM (inactive) | 21 µM (inactive)
COC(=O)C1=C(C(=O)OC)C2C(C)=CC(C)=CN2C(C#N)=C(SC)S1 (configuration not stated) |  | 17.4 µM (inactive) | 15 µM (inactive) | > 10 µM (inactive) | 17 µM (inactive) |  | 31 µM (inactive) | 19.2 µM (inactive) | 21.4 µM (inactive) | 23.2 µM (inactive) | 31 µM (inactive) | > 10 µM (inactive) | 12.7 µM (inactive) | 35.3 µM (inactive) | 19.3 µM (inactive)
O=C(COc1ccc(Cl)cc1)N1CCN(C(=O)COc2ccc(Cl)cc2)c2ccccc21 | 74.8 µM (inactive) | 45.2 µM (inactive) | 30.4 µM (inactive) | 50.7 µM (inactive) |  |  | 54.5 µM (inactive) | > 100 µM (inactive) |  | 45.6 µM (inactive) | 74 µM (inactive) |  | 7.23 µM (inactive) | 70 µM (inactive) | 21.2 µM (inactive)
CC12CP(=O)(c3ccccc3)CC1C2(Cl)Cl (configuration not stated) |  | > 100 µM (inactive) | > 100 µM (inactive) | > 100 µM (inactive) |  | > 100 µM (inactive) | > 100 µM (inactive) | > 100 µM (inactive) | > 100 µM (inactive) | 28.1 µM (inactive) | > 100 µM (inactive) | > 100 µM (inactive) |  |  | > 100 µM (inactive)
N#CC1(C=O)c2ccccc2C=CN1C(=O)c1ccccc1 (configuration not stated) | 26.4 µM (inactive) | 37.3 µM (inactive) | 38.6 µM (inactive) | 26.9 µM (inactive) | 61.9 µM (inactive) | 34.9 µM (inactive) |  |  | 50 µM (inactive) | 15.1 µM (inactive) | 29.6 µM (inactive) | 52.5 µM (inactive) | 33.3 µM (inactive) |  | > 100 µM (inactive)
COC(=O)C(=O)C(C(=O)C(=O)Nc1ccc(C)cc1C)c1nc2ccccc2nc1O (configuration not stated) | 19.5 µM (inactive) | 79.3 µM (inactive) | 63 µM (inactive) | 32.5 µM (inactive) | 37.4 µM (inactive) | > 100 µM (inactive) | > 100 µM (inactive) | 36.6 µM (inactive) | 41.6 µM (inactive) | 15 µM (inactive) | 57.1 µM (inactive) | 37.1 µM (inactive) | 30.9 µM (inactive) | 30.9 µM (inactive) | 51.9 µM (inactive)
CC(=O)Nc1c(Nc2ccccc2)[nH]c(C)nc1=S |  | > 100 µM (inactive) |  | > 100 µM (inactive) |  | > 100 µM (inactive) | > 100 µM (inactive) |  | > 100 µM (inactive) | 92.9 µM (inactive) |  | > 100 µM (inactive) | > 100 µM (inactive) | > 100 µM (inactive) | > 100 µM (inactive)
CC(=O)OCC1OC(N2C(=O)C(=O)c3ccccc32)C(OC(C)=O)C(OC(C)=O)C1OC(C)=O (configuration not stated) | > 100 µM (inactive) | > 100 µM (inactive) |  | > 100 µM (inactive) | > 100 µM (inactive) | > 100 µM (inactive) | > 100 µM (inactive) | > 100 µM (inactive) | > 100 µM (inactive) | > 100 µM (inactive) | > 100 µM (inactive) | > 100 µM (inactive) | > 100 µM (inactive) |  | > 100 µM (inactive)
CC[C@H]1[C@@H](C)C=C[C@@H](C)N1S(=O)(=O)c1ccc(C)cc1 | > 100 µM (inactive) | > 100 µM (inactive) | 51.6 µM (inactive) |  | > 100 µM (inactive) | > 100 µM (inactive) | 95.9 µM (inactive) | > 100 µM (inactive) | 92.7 µM (inactive) | > 100 µM (inactive) | > 100 µM (inactive) | 97.7 µM (inactive) | 5.26 µM (inactive) | > 100 µM (inactive) | > 100 µM (inactive)
O=C1C2C3C=C4c5ccccc5N(c5ccccc5)C4(C2C(=O)N1c1ccc(Cl)cc1)[C@H]1C(=O)N(c2ccc(Cl)cc2)C(=O)[C@@H]31 (some centres not stated) | > 100 µM (inactive) | 64.7 µM (inactive) | 78.3 µM (inactive) | > 100 µM (inactive) | > 100 µM (inactive) | > 100 µM (inactive) | > 100 µM (inactive) | > 100 µM (inactive) | > 100 µM (inactive) | > 100 µM (inactive) | > 100 µM (inactive) | > 100 µM (inactive) | > 100 µM (inactive) | > 100 µM (inactive) | 
Cc1ccc(-c2cc(O)c3cc4c(cc3n2)OCO4)cc1 | 0.615 µM (active) | 0.63 µM (active) | 1.24 µM (inactive) | 3.48 µM (inactive) | 1.63 µM (inactive) | 8.97 µM (inactive) | 2.02 µM (inactive) | 1.31 µM (inactive) | 2.56 µM (inactive) | 1.37 µM (inactive) | 1.59 µM (inactive) | 0.729 µM (active) | > 21.3 µM (inactive) | 2.61 µM (inactive) | 2.67 µM (inactive)
